{"source": "paper PMC5049494", "about": "“Nitrotriazole-based acetamides and propanamides with broad spectrum antitrypanosomal activity” (European Journal of Medicinal Chemistry, 2016)", "key": {"[1]": {"tested_on": "T.b. rhodesiense, strain STIB 900 trypomastigotes", "experiment": "In vitro activity against T. b. rhodesiense", "format": "cell-based", "conditions": "for IC50: Trypanosoma brucei, T.b. rhodesiense STIB 900 trypomastigotes, means of 2 to 3 measurements, SD < 5%, read-out: T.b.r. IC50", "protocol": "(§1) Compounds in Table 1 were screened for anti-parasitic activity against three trypanosomatids: T. cruzi, T. b. rhodesiense and Leishmania donovani and compared with previously made analogs shown in orange and designated with a. […] In addition, compounds were tested for toxicity in L6 rat skeletal myoblasts, the host cells for T. cruzi amastigotes, in order to calculate a selectivity index for each parasite [SI = IC50L6/IC50parasite] (Table 1). The TDR (Special Programme for Research and Training in Tropical Diseases, World Health Organization) criteria were adopted to interpret antiparasitic activity and selectivity.\n(§2) In vitro activity against T. cruzi, T. b. rhodesiense, L. donovani and cytotoxicity assessment using L6 cells (rat skeletal myoblasts) was determined using a 96-well plate format as previously described. Data were analyzed with the graphic program Softmax Pro (Molecular Devices, Sunnyvale, CA, USA), which calculated IC50 values by linear regression from the sigmoidal dose inhibition curves."}, "[2]": {"tested_on": "T. cruzi, strain Tulahuen C4 amastigotes", "experiment": "In vitro activity against T. cruzi", "format": "cell-based", "conditions": "for SI (T. c.): IC50 in L6 cells/IC50 in T. cruzi; for IC50: Trypanosoma cruzi, T. cruzi Tulahuen C4 amastigotes, means of 2 to 3 measurements, SD < 5%, read-out: T. c. IC50; for Bnz/comp: fold antichagasic potency relative to Bnz (T. cruzi IC50 ratio)", "quoted_text": "(§3) The concentration of compound that inhibits parasite growth by 50% (IC50) was calculated from dose response curves for each parasite (Table 1). In addition, compounds were tested for toxicity in L6 rat skeletal myoblasts, the host cells for T. cruzi amastigotes, in order to calculate a selectivity index for each parasite [SI = IC50L6/IC50parasite]\n(§4) In vitro activity against T. cruzi, T. b. rhodesiense, L. donovani and cytotoxicity assessment using L6 cells (rat skeletal myoblasts) was determined using a 96-well plate format as previously described [37]. Data were analyzed with the graphic program Softmax Pro (Molecular Devices, Sunnyvale, CA, USA), which calculated IC50 values by linear regression from the sigmoidal dose inhibition curves."}, "[3]": {"tested_on": "L. donovani axenic, strain MHOM-ET-67/L82 amastigotes", "experiment": "In vitro activity against L. donovani", "format": "cell-based", "conditions": "for IC50: Leishmania donovani, L. donovani axenic amastigotes MHOM-ET-67/L82, means of 2 to 3 measurements, SD < 5%, read-out: L.d. IC50", "quoted_text": "as §3, §4"}, "[4]": {"experiment": "Cytotoxicity in the host L6 cells", "format": "cell-based, rat", "conditions": "rat, L6 cells (rat skeletal myoblasts); cytotoxicity in host L6 cells; read-out: Cyt. L6 IC50", "protocol": "as §1, §2"}, "[5]": {"tested_on": "L6 cells (rat skeletal myoblasts)", "experiment": "Cytotoxicity in the host L6 cells", "format": "cell-based", "conditions": "for fold less toxic towards L6 cells relative to unsubstituted compounds 10 and 10a: 9 vs 10, 9a vs 10a", "protocol": "as §1, §2"}, "[6]": {"tested_on": "bloodstream form T.b. brucei wild type", "experiment": "T. brucei antiproliferating assay, wild type", "format": "cell-based", "conditions": "Trypanosoma brucei, read-out: IC50 value T.b. brucei Wild type, bloodstream form; means from 4 experiments ± SD", "protocol": "The BSF of T. brucei parasites were seeded at 1 × 10^3 mL^−1 in 200 μL of growth medium containing different concentrations of nitroheterocycle. Where appropriate, induction of the TbNTR was carried out by adding tetracycline (1 μg/mL). After incubation for 3 days at 37 °C, 20 μL of Alamar blue was added to each well and the plates incubated for a further 16 h. The cell density of each culture was determined as described before and the IC50 established."}, "[7]": {"tested_on": "bloodstream form T.b. brucei recombinant parasites expressing wild type (-tet) or elevated (+tet) levels of TbNTR", "experiment": "microbe, parasite or virus in culture", "format": "cell-based", "conditions": "Trypanosoma brucei", "quoted_text": "The BSF of T. brucei parasites were seeded at 1 × 10^3 mL^−1 in 200 μL of growth medium containing different concentrations of nitroheterocycle. Where appropriate, induction of the TbNTR was carried out by adding tetracycline (1 μg/mL). After incubation for 3 days at 37 °C, 20 μL of Alamar blue was added to each well and the plates incubated for a further 16 h. The cell density of each culture was determined as described before [20] and the IC50 established."}, "[8]": {"tested_on": "transgenic T. cruzi parasites expressing firefly luciferase", "format": "in vivo, Balb/c mice", "protocol": "A fast luminescence assay was used in an acute infected murine model, in which transgenic T. cruzi parasites expressing firefly luciferase were injected in 5 week-old Balb/c mice. Mice were injected with D-luciferin before imaging. Groups of 5 mice/group were treated i.p. for 10 consecutive days with each compound, at 13 or 15 mg/kg/day. […] The mean ratio of parasite levels was calculated after 5 and 10 days of treatment.\nFor in vivo studies, a Brazilian strain trypomastigotes from transgenic T. cruzi parasites expressing firefly luciferase were used as described before. Briefly, parasites (10^5 trypomastigotes) were injected in 5 week-old Balb/c mice (Taconic) and three days later mice were anesthesized by inhalation of isofluorane, followed by an injection with 150 mg/kg of D-luciferin potassium-salt in PBS. Mice were imaged 5–10 min after injection of luciferin with an IVIS 100 (Xenogen, Alameda, CA) and the data acquisition and analysis were performed with the software LivingImage (Xenogen) as described before. Treatment with test compounds started 4 days post infection at 13 or 15 mg/kg/day × 10 days, given i.p. The vehicle control was 2% methylcellulose +0.5% Tween 80 and groups of 5 mice/group were used. Mice were imaged after 5 and 10 days of treatment. The ratio of parasite levels was calculated for each animal dividing the luciferase signal after treatment by the luciferase signal on the first imaging (before treatment). Mean values of all animals in each group ± SD were used for plotting."}, "[9]": {"tested_on": "T.b. rhodesiense, strain STIB 900 trypomastigotes", "set-up": "method as in PMID 26344593, PMID 25580906", "conditions": "cited from earlier work"}, "[10]": {"tested_on": "L6 cells (rat skeletal myoblasts)", "set-up": "method as in PMID 26344593, PMID 25580906", "conditions": "previously evaluated compounds (orange, designated a); read-out: Cyt. L6 IC50; cited from earlier work"}, "[11]": {"conditions": "propanamide vs acetamide analog"}}, "note": "Read-outs that look alike come from different tables or passages of the source.", "data": [{"smiles": "CN(C(=O)Cn1cnc([N+](=O)[O-])n1)c1ccc(C(F)(F)F)cc1", "note": "[Compound 2, N-methyl-2-(3-nitro-1H-1,2,4-triazol-1-yl)-N-(4-(trifluoromethyl)phenyl)acetamide]", "values": [{"measurement": "anti-HAT activity class (TDR criteria)", "setting": "[1]; T. b. rhodesiense", "result": "inactive"}, {"measurement": "IC50", "setting": "[1]", "result": 37.4, "unit": "µM"}, {"measurement": "SI (T. c.)", "setting": "[2]", "result": "~165"}, {"measurement": "IC50", "setting": "[2]", "result": 1540, "unit": "nM"}, {"measurement": "fold decrease in antichagasic activity compared to 2a", "setting": "[2]; compared with 2a", "result": 1.6, "unit": "fold"}, {"measurement": "fold more potent towards T. cruzi amastigotes than 2-nitroimidazole counterpart 3", "setting": "[2]; compared with 3", "result": 32, "unit": "fold"}, {"measurement": "Bnz/comp", "setting": "[2]", "result": 1.4}, {"measurement": "IC50", "setting": "[3]", "result": 47.7, "unit": "µM"}, {"measurement": "IC50", "setting": "[4]", "result": 254, "unit": "µM"}, {"measurement": "fold decrease in toxicity against L6 cells compared to 2a", "setting": "[5]; compared with 2a", "result": 2, "unit": "fold"}, {"measurement": "melting point", "result": "133 to 134", "unit": "°C"}]}, {"smiles": "N#Cc1ccc(-c2ccc(NC(=O)CCn3cnc([N+](=O)[O-])n3)cc2)cc1", "note": "[Compound 9, N-(4′-cyano-[1,1′-biphenyl]-4-yl)-3-(3-nitro-1H-1,2,4-triazol-1-yl)propanamide]", "values": [{"measurement": "SI (T.b.r.)", "setting": "[1]; IC50 in L6 cells/IC50 in T.b. rhodesiense", "result": 2527}, {"measurement": "IC50", "setting": "[1]", "result": 0.091, "unit": "µM"}, {"measurement": "fold more potent against T. b. rhodesiense than the corresponding acetamide", "setting": "[1]; [11]", "result": 3.7, "unit": "fold"}, {"measurement": "SI (T. c.)", "setting": "[2]", "result": 2453}, {"measurement": "IC50", "setting": "[2]", "result": 94, "unit": "nM"}, {"measurement": "Bnz/comp", "setting": "[2]", "result": 23}, {"measurement": "fold more potent against T. cruzi than the acetamide analog", "setting": "[2]; [11]", "result": "about 1.5 fold"}, {"measurement": "SI (L.d.)", "setting": "[3]; IC50 in L6 cells/IC50 in L. donovani", "result": 73}, {"measurement": "antileishmanial activity class (TDR criteria)", "setting": "[3]; L. donovani", "result": "moderately active (‘moderate activity’ (IC50 between 1.0 and 6.0 μM))"}, {"measurement": "IC50", "setting": "[3]", "result": 3.17, "unit": "µM"}, {"measurement": "IC50", "setting": "[4]", "result": 230, "unit": "µM"}, {"measurement": "fold less toxic towards L6 cells relative to unsubstituted compounds 10 and 10a", "setting": "[5]", "result": "> 6", "unit": "fold"}, {"measurement": "IC50", "setting": "[6]", "result": "120 ± 10", "unit": "nM"}, {"measurement": "IC50", "setting": "[7]; read-out: IC50 value T.b. brucei TbNTR (+tet)", "result": "120 ± 10", "unit": "nM"}, {"measurement": "IC50", "setting": "[7]; read-out: IC50 value T.b. brucei TbNTR (-tet)", "result": "550 ± 40", "unit": "nM"}, {"measurement": "toxicity symptoms in treated mice", "setting": "[8]; 15 mg/kg/day i.p. x 10 days", "result": "No toxicity symptoms were observed"}, {"measurement": "parasite load after 10 days of treatment", "setting": "[8]; 15 mg/kg/day i.p. x 10 days, acute murine model, p < 0.0001", "result": "undetectable levels"}, {"measurement": "parasitic level after 5-day treatment", "setting": "[8]; 15 mg/kg/day i.p., compared to untreated control", "result": "Statistically significant reduction in parasitic level"}]}, {"smiles": "N#Cc1ccc(-c2ccc(NC(=O)Cn3cnc([N+](=O)[O-])n3)cc2)cc1", "note": "[Compound 9a]", "values": [{"measurement": "fold less toxic towards L6 cells relative to unsubstituted compounds 10 and 10a", "setting": "[5]", "result": "> 3.5", "unit": "fold"}, {"measurement": "anti-HAT activity class (TDR criteria)", "setting": "[9]; T. b. rhodesiense, previously evaluated acetamides", "result": "active"}, {"measurement": "IC50", "setting": "[9]; previously evaluated compounds (orange, designated a), read-out: T.b.r. IC50", "result": 336, "unit": "nM"}, {"measurement": "IC50", "setting": "[10]", "result": 165, "unit": "µM"}]}]}
